Measurements as given in PMC5844530, “Fosmetpantotenate (RE-024), a phosphopantothenate replacement therapy for pantothenate kinase-associated neurodegeneration: Mechanism of action and efficacy in nonclinical models” (PLoS ONE, 2018).
Several values for one entry are separate records, joined by “and”; a condition that tells them apart may be missing. Equal values may be shown once. Read-outs that look alike come from different tables or passages of the source.

How the values were obtained:
[1] = Metabolic stability in monkey liver microsomes; format: in vitro ADME; settings: pooled liver microsomes
Experimental: (§1) Metabolic stability in blood and liver microsomes: Fosmetpantotenate or its individual diastereomers (5 μM, n = 2, 37°C) were incubated in mouse, rat, cynomolgus monkey, and human whole blood. Samples (50 μL) were taken at 0, 5, 15, 30, and 60 min. Incubations of fosmetpantotenate or its individual diastereomers (1 μM, n = 2, 37°C) in pooled liver microsomes (0.25 mg protein/mL in 0.1 M phosphate buffer pH 7.4) were initiated with the addition of nicotinamide adenine dinucleotide phosphate (NADPH; 1 mM). Aliquots (100 μL) were obtained at 0, 5, 10, 20, and 40 min and added to 150 μL of 0.1% formic acid in acetonitrile-containing carbamazepine (0.5 μM) as an analytical internal standard, centrifuged, and the supernatants analyzed by LC-MS/MS.
(§2) Bioanalysis for determinations of analyte stability: Samples were analyzed using a benchtop tandem quadrupole detector (TQD) mass spectrometer (Waters Ltd, Centennial Park, Hertfordshire). […] Suitable retention and peak shape with separation of the 2 diastereomers were obtained. The chromatography column was a Phenomenex-Kinetex XB C18 (2.10 x 50 mm; 2.6 μm), with a 0.7 mL/min flow rate and a 2 μL injection volume. […]
(§3) The percent of compound remaining was determined from the MRM area response in each sample relative to that in the T = 0 samples (normalized for internal standard). […]

[2] = Microdialysis (striatal dialysate and blood) in cynomolgus monkeys; format: in vivo, cynomolgus monkey; settings: for Cmax: po, read-out: Cmax; for AUC: read-out: AUC
Experimental: Monkeys were sedated by intramuscular (i.m.) ketamine administration and cannulated for intravenous (i.v.) administration of propofol infusion (initiated 15–30 min after ketamine administration). Subsequently, the animals were placed in an magnetic resonance imaging (MRI)-compatible stereotaxic frame (Kopf Model 1430), and T1 and T2 weighted scans (for up to 1 h) were carried out with a 7 cm loop-coil in a 3 Tesla Siemens Magnetom TIM Trio (Germany). To derive the coordinates, Digital Imaging and Communications in Medicine (DICOM) files were transformed into Neuroimaging Informatics Technology Initiative (NIFTI) format. NIFTI-compatible images were loaded into 3D viewer software (MRIcro version 1.40 build 1), and the stereotaxic zero in the MRI image was determined using the coordinates of the earbar-tips. Coordinates for placement of the guide cannulas were calculated for every individual animal by use of MRI images and a primate brain map.
On a separate day, microdialysis guide cannulas were placed bilaterally in the head of the caudate nucleus using the same MRI compatible stereotaxic frame (Kopf Model 1430), under isoflurane anesthesia. Prior to surgery, animals were administered ketamine (i.m.), and subsequently anesthetized with isoflurane (0.8%-2% inhalation) while artificially ventilated with O2/N2O (40/60) at 60 to 80 mL tidal volume via an intratracheal tube. During surgery, subcutaneous or i.v. fluids were provided. Animals were allowed to recover from the anesthesia in a warmed environment, single housed, and given at a minimum a 14-day post-surgery recovery time. The following medications were administered to reduce pain and inflammation, as well as reduce the chance of post-operative infection: meloxicam (Metacam 5 mg/mL, 0.2 mg/kg, buprenorphine (Temgesic, 0.3 mg/mL, 0.0038 mg/kg), enrofloxacine (25 mg/mL, 5 mg/kg), and amoxicillin (150 mg/mL, 15 mg/kg).
Samples were stored in -80°C.
From monkeys only, whole blood samples (0.5 mL) were collected from the femoral vein at -1, 0, 1, 2, and 3 h relative to dosing and transferred immediately to chilled polypropylene 15 mL vials containing 2500 μL of 0.15% formic acid in acetonitrile, mixed, and placed on dry ice. After the collections samples were stored at -80°C.
Sample preparation for monkey dialysate and blood samples: Concentrations of fosmetpantotenate (D1 and D2), PA, and PPA in monkey dialysate and blood samples were determined by Brains On-Line LLC. […] For dialysate quantitation, standards and QC samples were prepared in control dialysate (0.2% BSA in aCSF: water: 0.04% ascorbic acid in aqueous 0.02 M formic acid [4.5:24:6 v/v/v]). Standards, QC samples, and dialysate (10 μL) were mixed with 6 μL 20 mM formic acid and 0.01% ascorbic acid in water containing internal standard (10 ng/mL of ^15N/^13C3-PA) and analyzed by LC-MS/MS. Blood standards and QC samples were prepared in supernatant from control monkey blood which had been treated with 5 volumes of 0.15% formic acid in acetonitrile. Endogenous levels >LLOQ were detected for PA in control quenched blood only and quantitated at 56.56 nM based on calibration standard prepared in solvent. To compensate for endogenous PA in the calibration curve control blood, PA standard curve concentrations were spiked plus endogenous levels. Sample work-up of blood involved diluting 10 μL supernatant from study blood samples, standards, and QC samples with 90 μL of 20 mM formic acid and 0.01% ascorbic acid in water, then treating with 4 μL 20 mM formic acid and 0.01% ascorbic acid in water containing internal standard (10 ng/mL of ^15N/^13C3-PA) and analyzing by LC-MS/MS.

[3] = Metabolic stability in human liver microsomes; format: in vitro ADME; settings: pooled liver microsomes
Experimental: as §1, §2, §3

[4] = pH 7.4, read-out: intrinsic clearance

## COC(=O)CCNC(=O)[C@H](O)C(C)(C)COP(=O)(N[C@@H](C)C(=O)OC)Oc1ccccc1 (mixture of isomers) [Fosmetpantotenate]
[1]; pH 7.4, 1 μM, NADPH
  half-life at 1 μM: 11 min
[1]; [4]
  microsomal CLint at 1 μM: 263 µL/min/mg
[2]; PA basal adjusted, analyte = label
  fold increase in dialysate AUC from 100 to 300 mg/kg: 5.0 fold
[2]; blood
  fold increase in blood estimated exposure from 100 to 300 mg/kg: ~ 3.6 fold
[2]; cynomolgus monkey, in vivo, 300 mg/kg, individual Cyno, Fosmetpantotentate 300 mg/kg PO, corrected for dilution, post-dose, time 0.5 hr, read-out: Fosmetpantotenate Dialysate Concentration
  concentration at 0.5 h: 2060 nM
[2]; cynomolgus monkey, in vivo, 300 mg/kg, individual Cyno, Fosmetpantotentate 300 mg/kg PO, corrected for dilution, post-dose, time 1 hr, read-out: Fosmetpantotenate Dialysate Concentration
  concentration at 1 h: 393 nM
[2]; cynomolgus monkey, in vivo, 300 mg/kg, individual Cyno, Fosmetpantotentate 300 mg/kg PO, corrected for dilution, post-dose, time 1.5 hr, read-out: Fosmetpantotenate Dialysate Concentration
  concentration at 1.5 h: 76 nM
[2]; cynomolgus monkey, in vivo, 300 mg/kg, individual Cyno, Fosmetpantotentate 300 mg/kg PO, corrected for dilution, post-dose, time 2 hr, read-out: Fosmetpantotenate Dialysate Concentration
  concentration at 2 h: 20 nM
[2]; cynomolgus monkey, in vivo, 300 mg/kg, individual Cyno, Fosmetpantotentate 300 mg/kg PO, corrected for dilution, post-dose, time 2.5 hr, read-out: Fosmetpantotenate Dialysate Concentration
  concentration at 2.5 h: 7.12 nM
[2]; cynomolgus monkey, in vivo, 300 mg/kg, individual Cyno, Fosmetpantotentate 300 mg/kg PO, post-dose, time 1 hr, read-out: Fosmetpantotenate Blood Concentration
  concentration at 1 h: 7390 nM
[2]; cynomolgus monkey, in vivo, 300 mg/kg, individual Cyno, Fosmetpantotentate 300 mg/kg PO, post-dose, time 3 hr, read-out: Fosmetpantotenate Blood Concentration
  concentration at 3 h: 227 nM
[2]; cynomolgus monkey, in vivo, 100 mg/kg, blood, fosmetpantotenate 100 mg/kg PO, analyte = label
  Cmax: 1650 ± 1930 nM
[2]; cynomolgus monkey, in vivo, 100 mg/kg, dialysate, fosmetpantotenate 100 mg/kg PO
  Cmax: 221 ± 253 nM
[2]; cynomolgus monkey, in vivo, 300 mg/kg, dialysate, fosmetpantotenate 300 mg/kg PO, mean (individual values)
  Cmax: 1560 nM
[2]; cynomolgus monkey, in vivo, dialysate, fosmetpantotenate 100 mg/kg PO
  AUC: 0.209 ± 0.234 µM·h
[2]; cynomolgus monkey, in vivo, dialysate, fosmetpantotenate 300 mg/kg PO, mean (individual values)
  AUC: 1.03 µM·h
[2]; cynomolgus monkey, in vivo, individual Cyno, Fosmetpantotentate 300 mg/kg PO, corrected for dilution, post-dose, time 3 hr, LLOQ D1=0.2 nM, D2=0.3 nM, read-out: Fosmetpantotenate Dialysate Concentration
  concentration at 3 h: 23.7 nM
[2]; cynomolgus, cynomolgus monkey, in vivo, 300 mg/kg, blood, fosmetpantotenate 300 mg/kg PO, mean (individual values), analyte = label
  Cmax: 6040 nM
[2]; cynomolgus, cynomolgus monkey, in vivo, blood, fosmetpantotenate 100 mg/kg PO, analyte = label
  AUC: 1.87 ± 1.96 µM·h
[2]; cynomolgus, cynomolgus monkey, in vivo, blood, fosmetpantotenate 300 mg/kg PO, mean (individual values), analyte = label
  AUC: 6.81 µM·h
[2]; individual Cyno, Fosmetpantotentate 300 mg/kg PO, corrected for dilution, post-dose, time 0.5 hr, read-out: Fosmetpantotenate Dialysate Concentration
  concentration at 3 h: 1059.88 nM
[2]; individual Cyno, Fosmetpantotentate 300 mg/kg PO, corrected for dilution, post-dose, time 1 hr, read-out: Fosmetpantotenate Dialysate Concentration
  concentration at 3 h: 429.27 nM
[2]; individual Cyno, Fosmetpantotentate 300 mg/kg PO, corrected for dilution, post-dose, time 1.5 hr, read-out: Fosmetpantotenate Dialysate Concentration
  concentration at 3 h: 72.40 nM
[2]; individual Cyno, Fosmetpantotentate 300 mg/kg PO, corrected for dilution, post-dose, time 2 hr, read-out: Fosmetpantotenate Dialysate Concentration
  concentration at 3 h: 19.06 nM
[2]; individual Cyno, Fosmetpantotentate 300 mg/kg PO, corrected for dilution, post-dose, time 2.5 hr, read-out: Fosmetpantotenate Dialysate Concentration
  concentration at 3 h: 4.54 nM
[2]; individual Cyno, Fosmetpantotentate 300 mg/kg PO, corrected for dilution, post-dose, time 3 hr, LLOQ D1=0.2 nM, D2=0.3 nM
  Fosmetpantotenate Dialysate Concentration: BLQ
[2]; individual Cyno, Fosmetpantotentate 300 mg/kg PO, corrected for dilution, pre-dose, time 0 hr, LLOQ D1=0.2 nM, D2=0.3 nM
  Fosmetpantotenate Dialysate Concentration: <LLOQ
[2]; individual Cyno, Fosmetpantotentate 300 mg/kg PO, corrected for dilution, pre-dose, time -0.5 hr, LLOQ D1=0.2 nM, D2=0.3 nM
  Fosmetpantotenate Dialysate Concentration: <LLOQ
[2]; individual Cyno, Fosmetpantotentate 300 mg/kg PO, corrected for dilution, pre-dose, time -1 hr, LLOQ D1=0.2 nM, D2=0.3 nM
  Fosmetpantotenate Dialysate Concentration: <LLOQ
[2]; individual Cyno, Fosmetpantotentate 300 mg/kg PO, post-dose, time 1 hr, read-out: Fosmetpantotenate Blood Concentration
  concentration at 1 h: 4687.62 nM
[2]; individual Cyno, Fosmetpantotentate 300 mg/kg PO, post-dose, time 2 hr, read-out: Fosmetpantotenate Blood Concentration
  concentration at 1 h: 1026.66 nM and 312.23 nM
[2]; individual Cyno, Fosmetpantotentate 300 mg/kg PO, post-dose, time 3 hr, read-out: Fosmetpantotenate Blood Concentration
  concentration at 1 h: 183.68 nM
[2]; individual Cyno, Fosmetpantotentate 300 mg/kg PO, pre-dose, time 0 hr relative to dose
  Fosmetpantotenate Blood Concentration: <LLOQ
[2]; individual Cyno, Fosmetpantotentate 300 mg/kg PO, pre-dose, time -1 hr relative to dose
  Fosmetpantotenate Blood Concentration: <LLOQ
[3]; pH 7.4, 1 μM, NADPH
  half-life at 1 μM: 21 min
[3]; [4]
  microsomal CLint at 1 μM: 134 µL/min/mg
